Measurements taken from article PMC5737711 (ACS chemical neuroscience, 2017).

Experiments:
[1] = target: CD36-Aβ interaction (recombinant extracellular domain of human CD36, fibrillar hAβ 1-42) (Homo sapiens, UniProt P16671); experiment: Colorimetric assay for inhibitors of Aβ-CD36 interaction; format: binding; conditions: for Activity on the CD36-Aβ interaction (screen): first evaluated at 100 μM
[2] = tested on: CD36-Aβ interaction; conditions: cited from earlier work
[3] = tested on: N9 microglia cells; conditions: cited from earlier work

CD36-Aβ interaction (recombinant extracellular domain of human CD36, fibrillar hAβ 1-42), sequence (P16671 30-439): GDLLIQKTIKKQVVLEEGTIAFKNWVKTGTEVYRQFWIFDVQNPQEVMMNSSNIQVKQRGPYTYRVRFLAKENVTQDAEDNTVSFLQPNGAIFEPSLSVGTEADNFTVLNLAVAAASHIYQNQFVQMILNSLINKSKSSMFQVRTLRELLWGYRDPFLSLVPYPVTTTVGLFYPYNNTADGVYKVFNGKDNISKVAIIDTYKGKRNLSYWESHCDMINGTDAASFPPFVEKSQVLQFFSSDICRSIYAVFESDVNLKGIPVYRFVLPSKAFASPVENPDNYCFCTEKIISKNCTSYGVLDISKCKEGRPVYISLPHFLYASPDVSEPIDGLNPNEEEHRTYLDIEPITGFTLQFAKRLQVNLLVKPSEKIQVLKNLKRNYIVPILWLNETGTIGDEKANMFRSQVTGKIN

Activity on the CD36-Aβ interaction (screen) [1] | Mode of inhibition of the interaction CD36-Aβ ([1]; from dose response profile) | SMILES | Inhibition of CD36-Aβ interaction in a cell-based assay [2] | Effect on production of ROS induced by Aβ [3]
lacked activity | – | COc1ccc2cc(NC(=O)C3=NO[C@H]4[C@H](O)C=C[C@@H](O)[C@@]4(O)C3)c(=O)oc2c1OC [Compound 1, Trichodermamide A] | – | –
lacked activity | – | COc1ccc2cc(NC(=O)C3=NO[C@H]4[C@H](O)C=C[C@@H](Cl)[C@@]4(O)C3)c(=O)oc2c1OC [Compound 2, Trichodermamide B] | – | –
– | competitive inhibitor | C[C@H]1[C@H](C)CC[C@]2(C(=O)O)CC[C@]3(C)C(=CC[C@@H]4[C@@]5(C)CC[C@H](O)C(C)(C)[C@@H]5CC[C@]43C)[C@H]12 [ursolic acid] | inhibitor of CD36-Aβ interaction | inhibits the production of ROS
